From ChEMBL document CHEMBL1130796, “7,8-Methylenedioxy-4H-2,3-benzodiazepin-4-ones as novel AMPA receptor antagonists” (Bioorg Med Chem Lett, 1998)
Activity calls are given as the source filed them. The rule behind the calls is not given here.

Experiments:
Mus musculus [1] = species: Mus musculus; assay: Compound was evaluated for anticonvulsant activity against PTZ induced seizures (clonic phase) in swiss mice; format: functional
[2] = Compound was evaluated for toxic dose on locomotor assessed by rotarod test in mice; format: ADME; conditions: mouse, in vivo
Mus musculus [3] = species: Mus musculus; assay: Compound was evaluated for anticonvulsant activity against audiogenic induced seizures after pretreatment with aniracetam (tonic phase); ND means not detected; format: functional, organism-based
Mus musculus [4] = species: Mus musculus; assay: Compound was evaluated for anticonvulsant activity against MES induced seizures(tonic phase) in swiss mice; format: functional
Mus musculus [5] = species: Mus musculus; assay: Compound was evaluated for anticonvulsant activity against AMPA induced seizures in DBA/2 mice( clonic phase); format: functional
Mus musculus [6] = species: Mus musculus; assay: Compound was evaluated for anticonvulsant activity against audiogenic induced seizures after pretreatment with aniracetam (clonic phase); ND means not detected; format: functional, organism-based
Mus musculus [7] = species: Mus musculus; assay: Compound was evaluated for anticonvulsant activity against audiogenic seizures in DBA/2 mice( tonic phase); format: functional
Mus musculus [8] = species: Mus musculus; assay: Compound was evaluated for anticonvulsant activity against AMPA induced seizures in DBA/2 mice( tonic phase); format: functional
Mus musculus [9] = species: Mus musculus; assay: Compound was evaluated for anticonvulsant activity against audiogenic seizures in DBA/2 mice( clonic phase); format: functional
Mus musculus [10] = species: Mus musculus; assay: Compound was evaluated for anticonvulsant activity against audiogenic induced seizures after pretreatment with aniracetam (clonic phase); p <0.01; format: functional
Mus musculus [11] = species: Mus musculus; assay: Compound was evaluated for anticonvulsant activity against audiogenic induced seizures after pretreatment with aniracetam (tonic phase); p <0.01; format: functional
Mus musculus [12] = species: Mus musculus; assay: Compound was evaluated for anticonvulsant activity against audiogenic induced seizures after pretreatment with aniracetam (tonic phase); p< 0.01; format: functional
Mus musculus [13] = species: Mus musculus; assay: Compound was evaluated for anticonvulsant activity against audiogenic induced seizures after pretreatment with aniracetam (clonic phase); p< 0.01; format: functional
Mus musculus [14] = species: Mus musculus; assay: Compound was evaluated for anticonvulsant activity against audiogenic induced seizures after pretreatment with aniracetam (clonic phase); format: functional
Mus musculus [15] = species: Mus musculus; assay: Compound was evaluated for anticonvulsant activity against audiogenic induced seizures after pretreatment with aniracetam (tonic phase); format: functional
Mus musculus [16] = species: Mus musculus; assay: Compound was evaluated for anticonvulsant activity against audiogenic induced seizures after pretreatment with aniracetam (clonic phase); p<0.01; format: functional
Mus musculus [17] = species: Mus musculus; assay: Compound was evaluated for anticonvulsant activity against audiogenic induced seizures after pretreatment with aniracetam (tonic phase); p<0.01; format: functional
[18] = Ratio between TD50 and ED50 from the clonic phase of the audiogenic seizures was determined; format: ADME

In the case of `Nc1cccc(C2=NNC(=O)Cc3cc4c(cc32)OCO4)c1`, the ED50 (Mus musculus [1]) is reported as 11.9 mg/kg, the TD50 [2] is reported as 29.8 mg/kg and the ED50 (Mus musculus [3]) is reported as “inactive”. The ED50 (Mus musculus [4]) was 5.7 mg/kg, the ED50 (Mus musculus [5]) was 8.62 mg/kg and the ED50 (Mus musculus [6]) was “inactive”. For the same compound, the ED50 (Mus musculus [7]) was 3.74 mg/kg, the ED50 (Mus musculus [8]) was 7.03 mg/kg and the ED50 (Mus musculus [9]) was 5.32 mg/kg.

For `COc1cc2c(cc1OC)C(c1ccc(N)cc1)=NNC(=O)C2`, the ED50 (Mus musculus [1]) was 6.99 mg/kg, the TD50 [2] was 17.4 mg/kg and the ED50 (Mus musculus [4]) was 4.92 mg/kg. For the same compound, the ED50 (Mus musculus [5]) was 9.93 mg/kg, the ED50 (Mus musculus [10]) was 20.2 mg/kg and the ED50 (Mus musculus [11]) was 18 mg/kg. It also gave an ED50 (Mus musculus [8]) of 7.73 mg/kg.

With `COc1ccc(C2=NNC(=O)Cc3cc4c(cc32)OCO4)cc1` the TD50 [2] was > 62.1 mg/kg, the ED50 (Mus musculus [7]) was > 37.2 mg/kg and the ED50 (Mus musculus [9]) was > 37.2 mg/kg.

Compound `Nc1ccc(C2=NNC(=O)Cc3cc4c(cc32)OCO4)cc1` has an ED50 (Mus musculus [1]) of 21.2 mg/kg, a TD50 [2] of 29.3 mg/kg and an ED50 (Mus musculus [4]) of 9.48 mg/kg. The ED50 (Mus musculus [5]) was 11.2 mg/kg, the ED50 (Mus musculus [12]) was 11.7 mg/kg and the ED50 (Mus musculus [13]) was 18.5 mg/kg. The ED50 (Mus musculus [7]) was 3.22 mg/kg, the ED50 (Mus musculus [8]) was 8.41 mg/kg and the ED50 (Mus musculus [9]) was 6.44 mg/kg.

With `COc1cc2c(cc1OC)C(c1ccccc1)=NNC(=O)C2` the ED50 (Mus musculus [1]) was 19.1 mg/kg, the ED50 (Mus musculus [14]) was 60.2 mg/kg and the TD50 [2] was 42.1 mg/kg. It also gave an ED50 (Mus musculus [4]) of 10.6 mg/kg, an ED50 (Mus musculus [5]) of 18.5 mg/kg and an ED50 (Mus musculus [15]) of 44 mg/kg. It also gave an ED50 (Mus musculus [8]) of 11.9 mg/kg and an ED50 (Mus musculus [9]) of 10 mg/kg.

Work on `CC1=NN=C(c2ccc(N)cc2)c2cc3c(cc2C1)OCO3` [GYKI-52466] yielded an ED50 (Mus musculus [1]) of 20 mg/kg, a TD50 [2] of 22.3 mg/kg and an ED50 (Mus musculus [5]) of 16.8 mg/kg. The ED50 (Mus musculus [16]) was 39.3 mg/kg, the ED50 (Mus musculus [17]) was 29.3 mg/kg and the ED50 (Mus musculus [8]) was 11.9 mg/kg.

For `COc1cc2c(cc1OC)C(c1cccc(N)c1)=NNC(=O)C2`, the TD50 [2] was 15.9 mg/kg.

Compound `O=C1Cc2cc3c(cc2C(c2ccc(O)cc2)=NN1)OCO3` has a TD50 [2] of 44.7 mg/kg, an ED50 (Mus musculus [7]) of 14.7 mg/kg and a selectivity ratio [18] of 2.9. For the same compound, the ED50 (Mus musculus [9]) was 15.5 mg/kg.

With `O=C1Cc2cc3c(cc2C(c2ccccc2)=NN1)OCO3` the ED50 (Mus musculus [1]) was 23.1 mg/kg, the TD50 [2] was 44.6 mg/kg and the ED50 (Mus musculus [3]) was “inactive”. For the same compound, the ED50 (Mus musculus [4]) was 12.6 mg/kg, the ED50 (Mus musculus [5]) was 20.8 mg/kg and the ED50 (Mus musculus [6]) was “inactive”. It also gave an ED50 (Mus musculus [7]) of 11.4 mg/kg, an ED50 (Mus musculus [8]) of 16.8 mg/kg and an ED50 (Mus musculus [9]) of 12.1 mg/kg.
